Measured values: US6833456B2, “Indolyl-urea derivatives of thienopyridines useful as antiangiogenic agents, and methods for their use” (Agouron Pharmaceuticals, Inc., priority 2002, dated 2004)
pIC50, pKi: −log10 of the molar value. “And” between values parts separate entries of the source, which are not always exact repeats. Equal entries are not always repeated.

What was measured:
[1] = test system: human umbilical vein endothelial cells (HUVEC); assay: HUVEC+VEGF proliferation assay; assay type: cell-based; conditions: VEGF 6 ng/mL, MTT
Method: This assay determines the ability of a test compound to inhibit the growth factor-stimulated proliferation of human umbilical vein endothelial cells (“HUVEC”). HUVEC cells (passage 3-4, Clonetics, Corp.) were thawed into EGM2 culture medium (Clonetics Corp) in T75 flasks. Fresh EGM2 medium was added to the flasks 24 hours later. Four or five days later, cells were exposed to another culture medium (F12K medium supplemented with 10% fetal bovine serum (FBS), 60 μg/mL endothelial cell growth supplement (ECGS), and 0.1 mg/mL heparin). Exponentially-growing HUVEC cells were used in experiments thereafter. Ten to twelve thousand HUVEC cells were plated in 96-well dishes in 100 μl of rich, culture medium (described above). The cells were allowed to attach for 24 hours in this medium. The medium was then removed by aspiration and 105 μl of starvation media (F12K+1% FBS) was added to each well. After 24 hours, 15 μl of test agent dissolved in 1% DMSO in starvation medium or this vehicle alone was added into each treatment well; the final DMSO concentration was 0.1%. One hour later, 30 μl of VEGF (30 ng/mL) in starvation media was added to all wells except those containing untreated controls; the final VEGF concentration was 6 ng/mL. Cellular proliferation was quantified 72 hours later by MTT dye reduction, at which time cells were exposed for 4 hours MTT (Promega Corp.). Dye reduction was stopped by addition of a stop solution (Promega Corp.) and absorbance at 595 nm was determined on a 96-well spectrophotometer plate reader.

[2] = target: T1, PDGFRβ (Homo sapiens, UniProt P09619); assay: PAE-PDGFRβ phosphorylation in PAE-PDGFRB cells assay; assay type: cell-based; conditions: PAE cells overexpressing human PDGFRβ, PDGF-BB stimulated; read-out: PAE PDGFR autophos IC50
T1 construct: expressed in transfected cells; host or cells: porcine aorta endothelial (PAE) cells
T1 sequence (P09619 33-1106): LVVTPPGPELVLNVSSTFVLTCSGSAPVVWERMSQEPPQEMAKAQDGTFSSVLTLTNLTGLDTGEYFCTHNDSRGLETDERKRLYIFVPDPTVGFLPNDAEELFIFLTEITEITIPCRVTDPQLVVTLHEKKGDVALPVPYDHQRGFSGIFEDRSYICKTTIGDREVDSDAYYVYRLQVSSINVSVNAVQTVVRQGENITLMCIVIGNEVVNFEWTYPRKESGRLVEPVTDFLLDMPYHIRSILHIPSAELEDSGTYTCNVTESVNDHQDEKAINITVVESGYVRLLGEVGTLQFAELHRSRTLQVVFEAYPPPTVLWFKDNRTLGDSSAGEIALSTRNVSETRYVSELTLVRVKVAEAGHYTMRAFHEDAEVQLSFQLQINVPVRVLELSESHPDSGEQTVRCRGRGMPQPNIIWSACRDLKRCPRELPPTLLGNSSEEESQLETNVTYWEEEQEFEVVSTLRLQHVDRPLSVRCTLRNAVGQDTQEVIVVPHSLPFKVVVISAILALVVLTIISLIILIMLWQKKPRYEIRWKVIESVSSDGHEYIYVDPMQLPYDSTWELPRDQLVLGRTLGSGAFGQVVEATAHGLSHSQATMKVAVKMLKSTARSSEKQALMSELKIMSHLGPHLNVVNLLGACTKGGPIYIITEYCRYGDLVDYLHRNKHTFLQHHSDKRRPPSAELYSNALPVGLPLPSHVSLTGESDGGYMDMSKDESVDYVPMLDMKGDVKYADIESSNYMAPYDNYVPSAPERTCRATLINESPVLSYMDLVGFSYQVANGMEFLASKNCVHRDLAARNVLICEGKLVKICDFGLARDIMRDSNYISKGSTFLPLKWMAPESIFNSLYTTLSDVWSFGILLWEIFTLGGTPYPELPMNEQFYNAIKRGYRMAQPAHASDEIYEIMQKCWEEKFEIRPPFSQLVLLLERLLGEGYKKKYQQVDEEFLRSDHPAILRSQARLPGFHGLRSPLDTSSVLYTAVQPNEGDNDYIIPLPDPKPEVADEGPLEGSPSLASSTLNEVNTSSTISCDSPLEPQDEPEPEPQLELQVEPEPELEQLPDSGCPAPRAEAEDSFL
Method: This assay determines the ability of a test compound to inhibit the autophosphorylation of PDGFRβ in porcine aorta endothelial (PAE)-PDGFRβ cells. PAE cells that overexpress human PDGFRβ were used in this assay. The cells were cultured in Ham's F12 media supplemented with 10% fetal bovine serum (FBS) and 400 ug/ml G418. Twenty thousands cells were seeded in each well of a 96-well plate in 50 μL of growth media and allowed to attach for 6 hours at 37° C. Cells were then exposed to the starvation media (Ham's F12 media supplemented with 0.1% FBS) for 16 hours. After the starvation period was over, 10 μL of test agent in 5% DMSO in starvation media were added to the test wells and 10 μL of the vehicle (5% DMSO in starvation media) were added into the control wells. The final DMSO concentration in each well was 0.5%. Plates were incubated at 37° C. for 1 hour and the cells were then stimulated with 1 μg/mL PDGF-BB (R & D System) in the presence of 2 mM Na3VO4 for 8 minutes. The cells were washed once with 1 mm Na3VO4 in HBSS and lysed by adding 50 μL per well of lysis buffer. One hundred μL of dilution buffer were then added to each well and the diluted cell lysate was transferred to a 96-well goat ant-rabbit coated plate (Pierce), which was pre-coated with Rabbit anti Human PDGFRβ antibody (Santa Cruz). The plates were incubated at room temperature for 2 hours and washed seven times with 1% Tween 20 in PBS. HRP-PY20 (Santa Cruz) was diluted and added to the plate for a 30-minute incubation. Plates were then washed again and TMB peroxidase substrate (Kirkegaard & Perry) was added for a 10-minute incubation. One hundred μL of 0.09 N H2SO4 was added into each well of the 96-well plate to stop the reaction. Phosphorylation status was assessed by spectrophotometer reading at 450 nm. IC50 values were calculated by curve fitting using a four-parameter analysis.

[3] = target: T2, unphosphorylated VEGF-R2Δ50 (FLVK) (Homo sapiens, UniProt P35968, DEL940-989/E990V); assay: VEGF-R2 coupled spectrophotometric assay, unphosphorylated construct (FLVK); assay type: biochemical
T2 construct: VEGF-R2Δ50 contains residues 806-939 and 990-1171; made in house; host or cells: baculovirus/insect cell system
T2 sequence (P35968 with tags, fused parts or gaps DEL940-989/E990V limits assumed): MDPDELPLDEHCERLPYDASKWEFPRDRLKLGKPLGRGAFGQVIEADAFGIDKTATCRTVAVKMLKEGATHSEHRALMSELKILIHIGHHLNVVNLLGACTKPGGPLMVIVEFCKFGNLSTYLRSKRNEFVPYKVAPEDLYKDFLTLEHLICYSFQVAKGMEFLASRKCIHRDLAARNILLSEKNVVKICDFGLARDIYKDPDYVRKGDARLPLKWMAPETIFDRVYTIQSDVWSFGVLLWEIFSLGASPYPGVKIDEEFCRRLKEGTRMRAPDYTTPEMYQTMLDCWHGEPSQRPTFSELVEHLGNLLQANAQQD
Outline: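 Human VEGF-R2Δ50 cytosolic kinase (residues 806-939/990-1171, E990V), baculovirus-expressed, unphosphorylated form. PK/LDH-coupled NADH oxidation at 340 nm with 20 mM poly(E4Y1), 3 mM ATP, 60 mM MgCl2, 2 mM MnCl2, 200 mM HEPES pH 7.5, 5-40 nM enzyme; Ki fitted by Morrison equation.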

[4] = Mouse PK assay; assay type: in vivo, B6 female mice; conditions: for AUC / Cmax: female, B6, mouse, plasma; for Mouse Cmin, po / AUC / Cmax: po; for Cmax: read-out: Mouse Cmax, po ng-h/mL
Method: The pharmacokinetics (e.g., absorption and elimination) of drugs in mice were analyzed using the following experiment. Test compounds were formulated as a suspension in a 30:70 (PEG 400: acidified H2O) vehicle. This solution was administered orally (p.o.) and intraperitoneally (i.p.) at 50 mg/kg to two distinct groups (n=4) of B6 female mice. Blood samples were collected via an orbital bleed at time points: 0 hour (pre-dose), 0.5 hr, 1.0 hr, 2.0 hr, and 4.0 hr post dose. Plasma was obtained from each sample by centrifugation at 2500 rpm for 5 min. Test compound was extracted from the plasma by an organic protein precipitation method. For each time bleed, 50 μL of plasma was combined with 1.0 mL of acetonitrile, vortexed for 2 min. and then spun at 4000 rpm for 15 min. to precipitate the protein and extract out the test compound. Next, the acetonitrile supernatant (the extract containing test compound) was poured into new test tubes and evaporated on a hot plate (25° C.) under a steam of N2 gas. To each tube containing the dried test compound extract, 125 μL of mobile phase (60:40, 0.025 M NH4H2PO4+2.5 mL/L TEA:acetonitrile) was added. The test compound was resuspended in the mobile phase by vortexing and more protein was removed by centrifugation at 4000 rpm for 5 min. Each sample was poured into an HPLC vial for test compound analysis on an Hewlett Packard 1100 series HPLC with UV detection. From each sample, 95 μL was injected onto a Phenomenex-Prodigy reverse phase C-18, 150×3.2 mm column and eluted with a 45-50% acetonitrile gradient run over 10 min. Test-compound plasma concentrations (μg/mL) were determined by a comparison to standard curve (peak area vs. conc. μg/mL) using known concentrations of test compound extracted from plasma samples in the manner described above. Along with the standards and unknowns, three groups (n=4) of quality controls (0.25 μg/mL, 1.5 μg/mL, and 7.5 μg/mL) were run to insure the consistency of the analysis. […] The quantitated test samples were plotted for visual display using Kaleidagraph software and their pharmacokinetic parameters were determined using WIN NONLIN software.

## CO[C@H]1CCN(C(=O)c2cc3nccc(Nc4ccc5c(c4)cc(C)n5C(=O)NC4CC4)c3s2)C1 [Example 1f, 5-[2-(3S-Methoxy-pyrrolidine-1-carbonyl)-thieno[3,2-b]pyridin-7-ylamino]-2-methyl-indole-1-carboxylic acid cyclopropylamide]
[1]; 72 hours
  pIC50: 9.17
[2]
  pIC50: 6.76
[3]
  pKi: 9.68
[3]; percent inhibition at 50 nM
  FLVK (% @ 50 (nM)): 97%
[4]; p.o., 50 mg/kg
  Mouse PK AUC, po ng-h/mL: 1837 ng·h/mL
[4]
  Mouse Cmin, po: 4 ng/mL

## Cc1cc2cc(Nc3ccnc4cc(C(=O)N5CC[C@@H](O)C5)sc34)ccc2n1C(=O)NC1CC1 [Example 1q, 5-[2-(3R-Hydroxy-pyrrolidine-1-carbonyl)-thieno[3,2-b]pyridin-7-ylamino]-2-methyl-indole-1-carboxylic acid cyclopropylamide]
[1]; Homo sapiens, HUVEC, 72 h
  pIC50: 9.32
[2]
  pIC50: < 6.00
[3]
  pKi: 9.77
[3]; percent inhibition at 50 nM
  inhibition at 0.05 µM: 99%
[4]; 50 mg/kg
  AUC: 6 ng·h/mL
[4]; 50 mg/kg, p.o., 50 mg/kg
  Cmax: 5 ng/mL
[4]
  Mouse Cmin, po: 0 ng/mL

## C#CCNC(=O)n1c(C)cc2c(F)c(Oc3ccnc4cc(C(=O)N5CCC[C@H]5COC)sc34)ccc21 [Example 5c, 4-Fluoro-5-[2-(2S-methoxymethyl-pyrrolidine-1-carbonyl)-thieno[3,2-b]pyridin-7-yloxy]-2-methyl-indole-1-carboxylic acid prop-2-ynylamide]
[1]; Homo sapiens, HUVEC, 72 h
  pIC50: 9.94
[2]
  pIC50: 8.11
[3]
  pKi: 9.22
[3]; percent inhibition at 50 nM
  inhibition at 0.05 µM: 99%
[4]; 50 mg/kg
  AUC: 36200 ng·h/mL
[4]; 50 mg/kg, p.o., 50 mg/kg
  Cmax: 19700 ng/mL

## C#CCNC(=O)n1c(C)cc2c(F)c(Oc3ccnc4cc(C(=O)N5CC[C@H](OC)C5)sc34)ccc21 [Example 5g, 4-Fluoro-5-[2-(3S-methoxy-pyrrolidine-1-carbonyl)-thieno[3,2-b]pyridin-7-yloxy]-2-methyl-indole-1-carboxylic acid prop-2-ynylamide]
[1]; Homo sapiens, HUVEC, 72 h
  pIC50: 9.82
[2]
  pIC50: 7.95
[3]
  pKi: 9.35
[3]; percent inhibition at 50 nM
  inhibition at 0.05 µM: 99%
[4]; 50 mg/kg
  AUC: 1170 ng·h/mL
[4]; 50 mg/kg, p.o., 50 mg/kg
  Cmax: 321 ng/mL
[4]
  Mouse Cmin, po: 65 ng/mL

## CCCNC(=O)n1c(C)cc2cc(Oc3ccnc4cc(C(=O)N5CC[C@@H](N(C)C)C5)sc34)ccc21 [Example 8h, 5-[(2-{[(3R)-3-(Dimethylamino)pyrrolidin-1-yl]carbonyl}thieno[3,2-b]pyridin-7-yl)oxy]-2-methyl-N-propyl-1H-indole-1-carboxamide]
[1]; Homo sapiens, HUVEC, 72 h
  pIC50: 9.80
[2]
  pIC50: 7.72
[3]
  pKi: 9.52
[3]; percent inhibition at 50 nM
  inhibition at 0.05 µM: 99%
[4]; 50 mg/kg
  AUC: 2390 ng·h/mL
[4]; 50 mg/kg, p.o., 50 mg/kg
  Cmax: 920 ng/mL
[4]
  Mouse Cmin, po: 204 ng/mL

## Cc1cc2cc(Oc3ccnc4cc(C(=O)N5CC[C@@H](N(C)C)C5)sc34)ccc2n1C(=O)NCCCO [Example 8i, 5-[(2-{[(3R)-3-(Dimethylamino)pyrrolidin-1-yl]carbonyl}thieno[3,2-b]pyridin-7-yl)oxy]-N-(3-hydroxypropyl)-2-methyl-1H-indole-1-carboxamide]
[1]; Homo sapiens, HUVEC, 72 h
  pIC50: 9.77
[2]
  pIC50: 7.59 and 7.47
[3]
  pKi: 9.32
[3]; percent inhibition at 50 nM
  inhibition at 0.05 µM: 99%

## CNC(=O)n1c(C)cc2cc(Oc3ccnc4cc(C(=O)N5CCC5)sc34)ccc21 [Example 8m, 5-[2-(Azetidine-1-carbonyl)-thieno[3,2-b]pyridin-7-yloxy]-2-methyl-indole-1-carboxylic acid methylamide]
[1]; Homo sapiens, HUVEC, 72 h
  pIC50: 10.08
[2]
  pIC50: 8.35
[3]
  pKi: 11.40
[3]; percent inhibition at 50 nM
  inhibition at 0.05 µM: 99%

## CO[C@H]1CCN(C(=O)c2cc3nccc(Oc4ccc5c(c4)cc(C)n5C(=O)NCC#N)c3s2)C1 [Example 9f, 5-[2-(3S-Methoxy-pyrrolidine-1-carbonyl)-thieno[3,2-b]pyridin-7-yloxy]-2-methyl-indole-1-carboxylic acid cyanomethyl-amide]
[1]; Homo sapiens, HUVEC, 72 h
  pIC50: 9.17
[2]
  pIC50: 7.89
[3]
  pKi: 9.18
[3]; percent inhibition at 50 nM
  inhibition at 0.05 µM: 84%

## CCNC(=O)n1c(C)cc2cc(Oc3ccnc4cc(C(=O)N5CC[C@H](O)C5)sc34)ccc21 [Example 9h, 5-[2-(3S-Hydroxy-pyrrolidine-1-carbonyl)-thieno[3,2-b]pyridin-7-yloxy]-2-methyl-indole-1-carboxylic acid ethylamide]
[1]; Homo sapiens, HUVEC, 72 h
  pIC50: 9.05
[2]
  pIC50: 7.51
[3]
  pKi: 9.59
[3]; percent inhibition at 50 nM
  inhibition at 0.05 µM: 99%
